Assay results as given in patent US20260132123A1, “ABAD INHIBITOR COMPOUNDS” (UNIVERSITY COURT OF THE UNIVERSITY OF ST ANDREWS, priority 2021, published 2026).
Read-outs that look alike come from different tables or passages of the source.

Columns and labels:
[1] = molecular target: T1, 17β-HSD10 (Homo sapiens, UniProt Q99714); experiment: 17β-HSD10 (ABAD) enzyme inhibition assay, NADH oxidation read at 340 nm (primary screen and dose response); format: biochemical; settings: for EC50 / Max. Effect (%) / Hill Slope / Max. Fit / Min. Fit: recombinant 17βHSD10 enzyme assay; for Hill Slope / Max. Fit / Min. Fit: curve fit
T1 construct: Histev (histidine tag with TEV site) (N, cleaved yes); made in house; host or cells: E. coli BL21-CodonPlus
T1 sequence (Q99714 1-261): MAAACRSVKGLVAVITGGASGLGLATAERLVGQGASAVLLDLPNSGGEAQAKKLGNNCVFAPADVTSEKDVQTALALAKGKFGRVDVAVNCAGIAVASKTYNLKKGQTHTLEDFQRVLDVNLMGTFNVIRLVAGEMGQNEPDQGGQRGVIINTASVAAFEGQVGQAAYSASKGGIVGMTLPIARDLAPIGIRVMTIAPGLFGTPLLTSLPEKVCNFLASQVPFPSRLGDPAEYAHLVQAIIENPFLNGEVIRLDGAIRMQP
Method in brief: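 Screening used a 35 min room-temperature endpoint A340 read after compound (10 μM) and enzyme (2.5 nM, E. coli-expressed, His-tag removed) preincubated 15 min, then 100 μM NADH plus acetoacetyl-CoA added. Dose-response runs tracked absorbance kinetically 45 min; buffer pH 7.4 Tris with BSA, DTT.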

[2] = molecular target: T1, 17β-HSD10; experiment: Mechanism of action against the substrates NADH and AcetoAcetyl CoA; format: biochemical; settings: for mode of binding with respect to NADH: AcAc in excess at 800 μM; for mode of binding with respect to AcAc: excess of 100 μM NADH
Protocol: To determine the kinetics for acetoacetyl-CoA and the effect of 17β-HSD10 concentration upon reaction rate, a matrix titration experiment was set up. Previously determined conditions were used with a fixed concentration of 700 μM NADH and a starting concentration of up to 200 μM acetoacetyl-CoA. Doubling dilutions of acetoacetyl-CoA were then coupled with doubling dilutions of 17β-HSD10, which started with a maximum concentration of 40 nM. Data collected from the experiment was analysed using a standard template, from which reaction progress curves were analysed to calculate initial velocities and obtain Km values using the Michaelis-Menten equation (XLFit, ID Business Solutions).
To determine the kinetics for NADH and the effect of 17β-HSD10 concentration upon reaction rate a matrix titration experiment was set up. Previously determined conditions (Aitken et al. 2017, supra) were used, 120 μM acetoacetate and a starting concentration of up to 1000 μM NADH. Doubling dilutions of NADH were then coupled with doubling dilutions of 17β-HSD10, which started with a maximum concentration of 40 nM. Data were analysed as described previously (Aitken et al. 2017, supra).
Two compounds, ESC1002033 and ESC1002082, representative of the two different clusters were investigated for their mechanism of action against the substrates, NADH and AcetoAcetyl CoA (AcAc). The ESC inhibitors were tested as 12-point 1 in 1.5 dilution series with a maximal concentration of 2.5 μM.

[3] = molecular target: T2, 17β-HSD10 in HEK293 mts17β-HSD10 cells (Homo sapiens, UniProt Q99714); experiment: (-)-CHANA enzyme activity cell based assay; settings: cellular 17β-HSD10, HEK 293 cells, (-)-CHANA probe
T2 construct: expressed in transfected cells; host or cells: HEK293
T2 sequence (Q99714 1-261): T1 sequence (Q99714 1-261)
Protocol: HEK293 mts17β-HSD10 cells were seeded at a density of 10,000 cells per well (100 μL, 96 well black plates) in phenol-red free media (10% FBS, 1 mM sodium pyruvate, 100 units penicillin, 0.1 mg/mL streptomycin and 2 mM L-glutamine). After 24 hours the media was removed from the cells and replaced with fresh media containing varying concentrations of compound (100 μM-0.098 μM). The fluorogenic probe (-)-CHANA was then added to each well to give a final assay concentration of 20 μM. Fluorescence was immediately measured using a FLUOstar Optima microplate reader (excitation=380 nm, emission=520 nm, orbital averaging=3 mm) and the initial reaction monitored for 3-4 hours. IC50 was calculated from the control-subtracted triplicates using non-linear regression (four parameters) of GraphPad Prism 5 software. Final IC50 and SEM value was obtained as a mean of at least 3 independent measurements.
REF: (-)-CHANA, a Fluorogenic Probe for Detecting Amyloid Binding Alcohol Dehydrogenase HSD10 Activity in Living Cells Kirsty E. A. Muirhead, Mary Froemming, Xiaoguang Li, Kamil Musilek, Stuart J. Conway, Dalibor Sames, and Frank J. Gunn-Moore ACS Chemical Biology 2010 5 (12), 1105-1114DOI: 10.1021/cb100199m) to monitor the oxidative activity of 17β-HSD10 in living cells. […]

[4] = Mouse hepatocyte stability; format: in vitro ADME; design: k: unit not given here; settings: for Heps Category: hepatocyte metabolism category, mouse; for Cl / half-life / k: mouse hepatocytes; for Cl: clearance; for k: k=absorption rate constant (so in the source)
Excerpt: (§1) Table 5: Initial mouse hepatocyte stability and plasma protein binding experiments were undertaken on some of the best exemplars from the representative series with AG18051 a previously published 17β-HSD10 inhibitor (C. R. Kissinger et al., J. Mol. Biol., 342 (2004), p. 943; Lim, Y.-A., Grimm, A., Giese, M. PLoS ONE (2011), 6, e28887.) Ref: shown for comparison. Where k=absorption rate constant Cl=clearance, T1/2=half-life, Heps=hepatocyte metabolism, PPB=plasma protein binding.

[5] = Mouse plasma protein binding; format: in vitro ADME
Excerpt: as §1

[6] = molecular target: T1, 17β-HSD10; experiment: Thermal shift analysis; format: binding; settings: 20 μM compound, 1 mM NADH
Protocol: Solutions containing compound at two concentrations (25 μM and 100 μM) added to assay buffer (50 mM Hepes, 0.5 M NaCl, pH 8.2, SYPRO orange 20 X, ±1 mM NADH) were plated in triplicate (25 μl per well) in MicroAmp 96-well plates (Thermo Fisher: 4346907). The plates were then sealed with optical grade sealing film (Thermo Fisher: 4311971) and loaded into a ViiA 7 RT-PCR machine ((Thermo Fisher: 4453534) (ramp speed 0.015° C./sec, 25-95° C.)). Data was exported to GraphPad PRISM and Tm values were calculated using the Boltzmann sigmoidal curve fit equation.
The ΔTm for one compound from each series is presented in FIG. 9 with a representative derivative plot of ESC1002033 and ESC1002082 in FIG. 9a.

[7] = tested on: mtsABAD HEK293 cells; experiment: Alamar Blue cell viability assay; format: cell-based, human; settings: 50 μM compound, listed as ESC1002204-01
[8] = tested on: mtsABAD HEK293 cells; experiment: Lactate dehydrogenase (LDH) cytotoxicity assay; format: cell-based, human; settings: 50 μM compound, listed as ESC1002204-01
[9] = Table 5, read-out: Mean ABAD pIC50 (converted)

| Compound | EC50 [1] [nM] | Max. Effect (%) [1] [%] | Hill Slope [1] | Max. Fit [1] | Min. Fit [1] | IC50 [1, 9] [nM] | Heps Category [4] | Cl [4] [ml/minute/g liver] | half-life [4] [min] | k [4] | Mouse PPB (% free) [5] [% free] | further results |
| --- | --- | --- | --- | --- | --- | --- | --- | --- | --- | --- | --- | --- |
| COc1ccc(-c2ccccc2C2CCCN2C(=O)c2sccc2C)cn1 (racemic) [ESC1002082, [2-[2-(6-methoxy-3-pyridyl)phenyl]pyrrolidin-1-yl]-(3-methyl-2-thienyl)methanone] | 794 | 96 | 1.1 | 98 | 0 | – | – | – | – | – | – | 17β-HSD10 pIC50 ([1]; 17β-HSD10 dose response / inhibition assay): 6.1; IC50 ([1]; primary screening, resynthesized HTS hit compounds, read-out: ABAD plC50 (converted)): 794 nM; mode of binding with respect to NADH [2]: non-competitively; mode of binding with respect to AcAc [2]: competitively |
| CC(C)CN(C(=O)c1ccccc1F)c1cccc(N(C)Cc2cnc[nH]2)c1 [ESC1002033, 2-fluoro-N-[3-[1H-imidazol-5-ylmethyl(methyl)amino]phenyl]-N-isobutyl-benzamide] | 200 | 99 | 1 | 99 | −3 | – | Mod | 6.2 | – | 0.013 | – | Mean ABAD pIC50 ([1]; Table 5): 6.7; ΔTm at 20 µM [6]: 6.75 °C; mode of binding with respect to NADH [2]: non-competitively; mode of binding with respect to AcAc [2]: competitively |
| Cc1ncc(CN(C)c2cccc(N(CC(C)C)C(=O)c3ccccc3F)c2)[nH]1 [ESC1002204] | 398 | 97 | 1.2 | 98 | 0 | 398 | High | 54 | 6.16 | 0.11 | – | 17β-HSD10 / ABAD activity in words (SAR discussion) [1]: only slightly reduced ABAD inhibition levels; Alamar Blue % Viability (50 μM Dose) [7]: 88.836%; LDH % Toxicity (50 μM Dose) [8]: 5.048% |
| CC(C)CN(C(=O)c1c(F)cccc1F)c1cccc(N(C)Cc2c[nH]cn2)c1 [ESC1002456, 2,6-difluoro-N-[3-[1H-imidazol-4-ylmethyl(methyl)amino]phenyl]-N-isobutyl-benzamide] | 138 | 97 | 1.2 | 96 | 17 | – | High | 8.6 | – | 0.018 | 8.9 | Mean ABAD pIC50 ([1]; Table 5): 6.86 |
| Cc1ccc(C(=O)N(CC(C)C)c2cccc(N(C)Cc3c[nH]cn3)c2)c(F)c1 [ESC1002575, 2-fluoro-N-[3-[1H-imidazol-4-ylmethyl(methyl)amino]phenyl]-N-isobutyl-4-methyl-benzam] | 269 | 102 | 1.3 | 101 | 10 | – | Mod | 5.8 | – | 0.012 | 7.6 | Mean ABAD pIC50 ([1]; Table 5): 6.57 |
| Cc1ccsc1C(=O)N(CC(C)C)c1cccc(N(C)Cc2c[nH]cn2)c1 [ESC1002597] | 398 | 100 | 1.4 | 96 | 4 | 398 | Mod | 7.2 | 46.2 | 0.02 | – | – |

More lines, main results first:

| EC50 [1] [nM] | Max. Effect (%) [1] [%] | Hill Slope [1] | Max. Fit [1] | Min. Fit [1] | IC50 [1, 9] [nM] | Heps Category [4] | Cl [4] [ml/minute/g liver] | half-life [4] [min] | k [4] | Mouse PPB (% free) [5] [% free] | Compound | further results |
| --- | --- | --- | --- | --- | --- | --- | --- | --- | --- | --- | --- | --- |
| 20 | 95 | 1 | 93 | −2 | 18.6 | High | 105.8 | 3.14 | 0.22 | – | O=C(c1sccc1Cl)N1CCC[C@H]1c1ccccc1-c1cccc(O)c1 (single isomer, unassigned) [ESC1002755] | EC50 [3]: 28 nM; fold improvement in activity / potency ([1]; relative to the parent compound of the sentence): 40 fold |
| 115 | 94 | 0.89 | 95 | −10 | 105 | High | 62.4 | 5.33 | 0.13 | – | COc1cccc(-c2ccccc2[C@@H]2CCCN2C(=O)c2[nH]ncc2Cl)c1 (single isomer, unassigned) [ESC1002757] | – |
| 191 | 94 | 1 | 93 | −3 | 170 | High | 71.5 | 4.65 | 0.15 | – | Cc1ccsc1C(=O)N1CCC[C@H]1c1ccccc1-c1cccc(Cl)c1 (single isomer, unassigned) [ESC1002769] | – |
| 155 | 97 | 1.1 | 96 | −3 | 110 | High | 21.9 | 15.2 | 0.046 | 9.9 | O=C(c1[nH]ncc1Cl)N1CCC[C@H]1c1ccccc1-c1cccc(O)c1 (single isomer, unassigned) [ESC1002799] | – |
| 40.7 | 102 | 1.1 | 98 | −3 | 34.7 | High | 83.1 | 4 | 0.17 | 3.4 | O=C(c1sccc1Cl)N1CCC[C@H]1c1ccccc1-c1cc(O)ccc1F (single isomer, unassigned) [ESC1002842] | – |
